# Measurements: ChEMBL document CHEMBL1201862, “PubChem BioAssay data set” (2004)
# Calls of active or inactive are those of the source.
# Tests used:
# [1] = molecular target: Cytochrome P450 3A4 (Homo sapiens, UniProt P08684); conditions: Potency;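 note: confirmatory qHTS run detecting inhibitors and substrates of CYP3A4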
# [2] = cells; type: functional, cell-based
# [3] = NIH-3T3 fibroblast cytotoxicity, dose response, cytotoxicity control, cell-based, fluorescence, Alamar Blue, secondary assay (AID 2327); type: functional;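 note: NIH-3T3 mouse fibroblasts cultured with fluconazole at 8 µg/mL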
# [4] = fluconazole-exposed Candida albicans growth modulators – fluorescence, retest, confirmation (AID 2467); type: functional, cell-based
# [5] = cells; type: functional, cell-based; remark: listed apart in the source
# [6] = molecular target: Cytochrome P450 2D6 (Homo sapiens, UniProt P10635);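 note: CYP2D6 member of a cytochrome P450 panel assay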
# Cytochrome P450 2D6, sequence (P10635 whole entry): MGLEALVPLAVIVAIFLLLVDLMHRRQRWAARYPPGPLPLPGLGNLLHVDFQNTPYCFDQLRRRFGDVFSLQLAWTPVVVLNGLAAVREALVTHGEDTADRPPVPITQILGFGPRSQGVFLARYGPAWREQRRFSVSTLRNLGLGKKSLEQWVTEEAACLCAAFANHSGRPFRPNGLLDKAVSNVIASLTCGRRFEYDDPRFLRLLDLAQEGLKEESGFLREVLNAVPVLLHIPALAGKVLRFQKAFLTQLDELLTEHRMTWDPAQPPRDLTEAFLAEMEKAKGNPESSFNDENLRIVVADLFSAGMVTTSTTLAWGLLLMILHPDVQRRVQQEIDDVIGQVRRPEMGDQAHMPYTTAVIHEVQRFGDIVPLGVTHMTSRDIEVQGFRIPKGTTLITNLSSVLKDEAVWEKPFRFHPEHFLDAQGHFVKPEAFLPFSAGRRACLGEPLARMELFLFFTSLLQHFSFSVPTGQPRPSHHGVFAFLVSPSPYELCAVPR
# [7] = molecular target: Cytochrome P450 2C19 (Homo sapiens, UniProt P33261); assay: Cytochrome panel assay with activity outcomes. Panel member name: p450-cyp2c19 Compounds with AC50 equal or less than 10 uM are considered active; type: functional
# [8] = molecular target: Beta-galactosidase (Escherichia coli, UniProt Q8VNN2); assay: detection-enzyme interference by beta-gal modulators – biochemical, E. coli enzyme, set 3, artefact control for CCR6 antagonist project, dose response (AID 504712); type: functional
# Beta-galactosidase, sequence (Q8VNN2 whole entry): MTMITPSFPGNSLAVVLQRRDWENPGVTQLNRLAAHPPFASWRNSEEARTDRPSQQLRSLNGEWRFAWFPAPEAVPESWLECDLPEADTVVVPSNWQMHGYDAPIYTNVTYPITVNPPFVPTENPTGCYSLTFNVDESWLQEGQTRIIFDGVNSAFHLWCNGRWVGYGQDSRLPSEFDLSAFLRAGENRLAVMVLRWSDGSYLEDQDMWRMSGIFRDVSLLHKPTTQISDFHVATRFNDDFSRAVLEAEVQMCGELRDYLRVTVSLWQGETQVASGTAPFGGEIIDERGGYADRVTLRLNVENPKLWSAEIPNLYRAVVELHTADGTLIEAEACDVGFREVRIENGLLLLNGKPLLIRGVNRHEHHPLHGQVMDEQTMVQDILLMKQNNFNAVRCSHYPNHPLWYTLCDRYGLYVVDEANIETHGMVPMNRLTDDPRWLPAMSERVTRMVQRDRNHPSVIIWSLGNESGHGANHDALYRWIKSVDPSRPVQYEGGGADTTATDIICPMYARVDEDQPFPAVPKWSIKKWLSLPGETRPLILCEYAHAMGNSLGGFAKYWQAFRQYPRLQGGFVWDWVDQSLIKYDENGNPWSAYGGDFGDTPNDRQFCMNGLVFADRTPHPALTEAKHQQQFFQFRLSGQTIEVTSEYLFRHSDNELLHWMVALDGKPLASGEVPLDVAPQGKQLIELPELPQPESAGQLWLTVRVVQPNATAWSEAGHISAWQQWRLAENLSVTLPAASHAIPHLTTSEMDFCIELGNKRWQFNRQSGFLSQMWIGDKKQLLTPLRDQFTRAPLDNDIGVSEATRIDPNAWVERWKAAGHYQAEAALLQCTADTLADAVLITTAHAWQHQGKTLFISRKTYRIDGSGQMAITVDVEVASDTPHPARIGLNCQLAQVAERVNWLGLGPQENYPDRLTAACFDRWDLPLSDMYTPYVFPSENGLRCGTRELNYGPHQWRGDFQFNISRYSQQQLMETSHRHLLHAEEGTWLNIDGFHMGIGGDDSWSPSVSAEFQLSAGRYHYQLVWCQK
# [9] = molecular target: T1, Streptokinase A (Streptococcus pyogenes serotype M1, UniProt P10520); assay: viability-normalized secreted streptokinase activity reduction – plasminogen activation absorbance, OD405, dose response (AID 1914); type: functional, Streptococcus pyogenes M1 GAS;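 note: secreted streptokinase activity via plasminogen activation per viability signal from cell pellet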
# T1 sequence (P10520 whole entry): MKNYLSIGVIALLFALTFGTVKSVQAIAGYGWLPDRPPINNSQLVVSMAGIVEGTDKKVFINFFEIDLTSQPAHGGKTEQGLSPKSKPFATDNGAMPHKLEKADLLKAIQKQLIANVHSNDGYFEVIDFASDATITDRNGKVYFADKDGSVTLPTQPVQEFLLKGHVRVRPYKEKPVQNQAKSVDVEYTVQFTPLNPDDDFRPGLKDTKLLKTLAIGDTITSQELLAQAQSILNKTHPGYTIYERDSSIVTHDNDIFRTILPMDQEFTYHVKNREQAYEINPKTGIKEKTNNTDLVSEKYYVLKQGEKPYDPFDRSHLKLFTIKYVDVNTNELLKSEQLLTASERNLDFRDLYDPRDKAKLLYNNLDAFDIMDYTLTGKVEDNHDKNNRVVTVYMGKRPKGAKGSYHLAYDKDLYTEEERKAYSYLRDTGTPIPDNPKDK
# [10] = system: Streptococcus; assay: GAS UMAA2166 growth inhibition – luminescence, BacTiterGlo, counter-screen for streptokinase expression inhibitor project, dose response (AID 1915); type: functional, organism-based;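 note: potency for reduction of bacterial viability or growth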
# [11] = system: Streptococcus sp. 'group A'; assay: Streptococcus pyogenes SK(-)GAS viability under kanamycin – luminescence, BacTiterGlo, confirmation, counter-screen for streptokinase expression inhibitor project, dose response (AID 1900); type: functional, organism-based
# [12] = molecular target: Voltage-dependent T-type calcium channel subunit alpha-1H (Homo sapiens, UniProt O95180); type: functional;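 note: channel activity triggered by adding a high calcium stimulation buffer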
# Voltage-dependent T-type calcium channel subunit alpha-1H, sequence (O95180 whole entry): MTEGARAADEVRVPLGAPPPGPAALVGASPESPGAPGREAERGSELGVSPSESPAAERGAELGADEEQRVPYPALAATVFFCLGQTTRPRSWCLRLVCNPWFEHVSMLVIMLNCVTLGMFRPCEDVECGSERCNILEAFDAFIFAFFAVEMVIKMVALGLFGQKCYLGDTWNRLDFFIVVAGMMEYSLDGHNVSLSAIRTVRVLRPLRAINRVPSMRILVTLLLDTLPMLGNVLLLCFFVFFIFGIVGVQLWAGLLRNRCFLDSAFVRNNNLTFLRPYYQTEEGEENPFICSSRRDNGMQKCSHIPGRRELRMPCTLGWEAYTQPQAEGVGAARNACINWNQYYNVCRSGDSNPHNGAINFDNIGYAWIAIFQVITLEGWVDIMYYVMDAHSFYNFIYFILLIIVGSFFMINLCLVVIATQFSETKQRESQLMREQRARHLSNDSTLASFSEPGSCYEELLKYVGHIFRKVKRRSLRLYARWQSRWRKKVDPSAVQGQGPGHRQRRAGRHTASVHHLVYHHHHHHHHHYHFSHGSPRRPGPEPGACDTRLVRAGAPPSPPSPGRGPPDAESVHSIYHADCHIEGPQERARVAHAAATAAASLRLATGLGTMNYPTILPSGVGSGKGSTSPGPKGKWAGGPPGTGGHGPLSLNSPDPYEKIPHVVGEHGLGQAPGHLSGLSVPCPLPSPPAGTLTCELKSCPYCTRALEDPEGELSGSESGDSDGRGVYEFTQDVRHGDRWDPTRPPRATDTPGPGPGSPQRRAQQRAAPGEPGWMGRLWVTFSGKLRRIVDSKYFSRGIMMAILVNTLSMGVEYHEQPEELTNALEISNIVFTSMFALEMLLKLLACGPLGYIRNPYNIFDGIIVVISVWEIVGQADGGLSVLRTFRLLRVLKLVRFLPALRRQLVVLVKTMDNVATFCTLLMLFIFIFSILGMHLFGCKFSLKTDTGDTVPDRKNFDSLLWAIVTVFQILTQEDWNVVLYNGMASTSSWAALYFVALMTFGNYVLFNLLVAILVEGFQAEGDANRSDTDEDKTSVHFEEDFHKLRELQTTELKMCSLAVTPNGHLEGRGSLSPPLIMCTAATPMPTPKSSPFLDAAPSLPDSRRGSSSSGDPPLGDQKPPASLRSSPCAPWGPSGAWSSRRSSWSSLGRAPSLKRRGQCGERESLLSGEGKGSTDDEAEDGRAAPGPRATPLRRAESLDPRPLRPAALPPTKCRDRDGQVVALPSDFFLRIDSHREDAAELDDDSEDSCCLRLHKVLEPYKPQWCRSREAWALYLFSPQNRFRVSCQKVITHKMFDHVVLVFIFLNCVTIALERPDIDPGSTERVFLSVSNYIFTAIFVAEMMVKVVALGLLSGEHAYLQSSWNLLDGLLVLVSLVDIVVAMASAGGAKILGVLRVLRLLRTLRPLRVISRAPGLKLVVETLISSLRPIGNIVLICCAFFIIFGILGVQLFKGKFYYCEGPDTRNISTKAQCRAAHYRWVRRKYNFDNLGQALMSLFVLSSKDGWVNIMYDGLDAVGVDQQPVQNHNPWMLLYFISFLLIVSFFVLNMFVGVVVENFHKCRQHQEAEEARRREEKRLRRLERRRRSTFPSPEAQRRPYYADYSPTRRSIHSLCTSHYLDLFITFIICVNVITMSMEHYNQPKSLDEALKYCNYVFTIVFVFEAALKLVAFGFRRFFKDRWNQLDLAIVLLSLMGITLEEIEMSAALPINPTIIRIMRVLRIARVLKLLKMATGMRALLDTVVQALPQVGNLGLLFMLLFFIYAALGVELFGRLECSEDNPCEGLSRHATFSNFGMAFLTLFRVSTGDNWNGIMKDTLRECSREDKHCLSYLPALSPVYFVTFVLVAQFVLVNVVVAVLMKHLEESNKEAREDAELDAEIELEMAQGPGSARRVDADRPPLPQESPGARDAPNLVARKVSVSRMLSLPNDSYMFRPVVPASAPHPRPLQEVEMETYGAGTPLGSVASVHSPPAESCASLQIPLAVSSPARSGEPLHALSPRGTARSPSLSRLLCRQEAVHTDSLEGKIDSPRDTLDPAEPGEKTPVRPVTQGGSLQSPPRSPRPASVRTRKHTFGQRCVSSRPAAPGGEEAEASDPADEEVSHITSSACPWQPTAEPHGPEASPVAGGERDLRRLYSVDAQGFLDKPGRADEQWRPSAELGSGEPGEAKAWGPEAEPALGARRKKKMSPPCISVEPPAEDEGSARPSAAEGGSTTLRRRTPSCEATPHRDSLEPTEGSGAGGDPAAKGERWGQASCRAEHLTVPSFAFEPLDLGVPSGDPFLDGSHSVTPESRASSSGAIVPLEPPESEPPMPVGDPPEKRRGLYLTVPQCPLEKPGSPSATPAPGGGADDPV
# [13] = system: Vero; assay: cells; type: functional, cell-based; conditions: Chlorocebus sabaeus
# [14] = system: Vero; assay: cells; type: functional; conditions: Chlorocebus sabaeus
# [15] = molecular target: T2, Cytochrome P450 1A2 (Homo sapiens, UniProt P05177);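 note: PubChem cytochrome P450 panel assay, CYP1A2 panel member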
# T2 sequence (P05177 whole entry): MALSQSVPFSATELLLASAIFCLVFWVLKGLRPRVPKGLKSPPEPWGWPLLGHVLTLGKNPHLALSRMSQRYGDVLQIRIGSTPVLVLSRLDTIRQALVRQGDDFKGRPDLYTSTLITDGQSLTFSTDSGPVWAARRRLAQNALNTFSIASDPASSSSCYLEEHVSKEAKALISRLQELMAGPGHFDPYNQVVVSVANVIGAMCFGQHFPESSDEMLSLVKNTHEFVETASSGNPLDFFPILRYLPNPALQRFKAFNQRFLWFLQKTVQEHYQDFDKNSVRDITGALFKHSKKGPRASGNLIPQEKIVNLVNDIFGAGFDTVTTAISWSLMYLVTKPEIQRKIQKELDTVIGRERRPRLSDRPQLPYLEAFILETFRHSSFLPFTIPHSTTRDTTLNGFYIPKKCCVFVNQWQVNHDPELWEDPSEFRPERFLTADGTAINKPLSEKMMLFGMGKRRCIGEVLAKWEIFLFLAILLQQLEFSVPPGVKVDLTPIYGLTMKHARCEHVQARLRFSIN
# [16] = molecular target: T3, Low molecular weight phosphotyrosine protein phosphatase (Homo sapiens, UniProt P24666); type: functional; conditions: read-out: IC50_Mean;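 note: Dose-response confirmation assay measuring inhibition of LMPTP enzyme activity by fluorescence intensity read-out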
# T3 sequence (P24666 whole entry): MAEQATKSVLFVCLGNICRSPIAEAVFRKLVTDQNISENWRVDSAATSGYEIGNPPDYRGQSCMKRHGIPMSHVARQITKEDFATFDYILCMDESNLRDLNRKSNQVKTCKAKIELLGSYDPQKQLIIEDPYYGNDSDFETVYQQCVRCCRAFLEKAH
# [17] = molecular target: Melanocortin receptor 4 (Homo sapiens, UniProt P32245); type: functional, cell-based;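 note: Cell-based assay with luminescence read-out, confirmatory dose-response testing for agonist activity of biased ligands at MC4R; human U2OS cells with tagged receptor and beta-arrestin; potency of agonists that increase receptor coupling to beta-arrestin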
# Melanocortin receptor 4, sequence (P32245 whole entry): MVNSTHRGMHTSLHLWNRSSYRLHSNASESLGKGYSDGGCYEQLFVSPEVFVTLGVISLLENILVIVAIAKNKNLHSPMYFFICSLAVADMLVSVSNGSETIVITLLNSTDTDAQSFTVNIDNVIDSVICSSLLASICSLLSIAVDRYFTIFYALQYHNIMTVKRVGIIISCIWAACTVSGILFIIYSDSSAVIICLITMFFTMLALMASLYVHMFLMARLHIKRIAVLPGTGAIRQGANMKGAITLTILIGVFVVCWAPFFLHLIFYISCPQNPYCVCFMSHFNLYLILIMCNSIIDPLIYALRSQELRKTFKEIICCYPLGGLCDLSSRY
# [18] = system: H9c2; assay: cells; type: functional, cell-based; conditions: Rattus norvegicus, H9c2, Myocardium;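 note: confirmatory concentration-response retest of ultra-high-throughput screening hits for modulation of myocardial damage; cell death induced by hydrogen peroxide oxidative stress; compound pretreatment for 60 min then peroxide exposure for 2 h; potency is for protecting the cells against peroxide damage rather than for killing them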
# [19] = molecular target: T4, Ubiquitin-conjugating enzyme E2 N (Homo sapiens, UniProt P61088); type: functional;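 note: Dose-response confirmation in a TR-FRET assay detecting UBC13-driven polyubiquitin chain formation, inhibition measured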
# T4 sequence (P61088 whole entry): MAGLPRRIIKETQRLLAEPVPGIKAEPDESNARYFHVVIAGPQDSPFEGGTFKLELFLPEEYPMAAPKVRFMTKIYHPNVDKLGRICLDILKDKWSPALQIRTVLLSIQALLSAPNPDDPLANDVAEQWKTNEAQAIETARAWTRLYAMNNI
# [20] = Trypanosoma cruzi growth suppression in host cells – NIH3T3 host cells, beta-gal luminescence, confirmation (AID 2044); type: functional, cell-based;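 note: intracellular parasites grown in NIH/3T3 mouse fibroblasts as host cells; luminescent beta-galactosidase reporter signal from transgenic T. cruzi replicating inside host cells; inhibitors lower the luminescence signal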
# [21] = NIH3T3 cell viability loss – ATP luminescence, mouse fibroblasts, counter-screen, dose response (AID 2010); type: functional, cell-based;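 note: cells exposed to compound for about 90 hours before reading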
# [22] = molecular target: T5, Heat shock factor protein 1 (Mus musculus, UniProt P38532); assay: enhancement of HSF1-driven luciferase signal – cell-based, NIH3T3, luminescence, dose retest, confirmation (AID 435004); type: functional;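 note: stress induced by proteasome inhibitor MG132 added 30 min after compound; luciferase reporter driven by HSF1 response element in NIH3T3 cells; actives raise luminescence as potentiators of the MG132 stress response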
# T5 sequence (P38532 whole entry): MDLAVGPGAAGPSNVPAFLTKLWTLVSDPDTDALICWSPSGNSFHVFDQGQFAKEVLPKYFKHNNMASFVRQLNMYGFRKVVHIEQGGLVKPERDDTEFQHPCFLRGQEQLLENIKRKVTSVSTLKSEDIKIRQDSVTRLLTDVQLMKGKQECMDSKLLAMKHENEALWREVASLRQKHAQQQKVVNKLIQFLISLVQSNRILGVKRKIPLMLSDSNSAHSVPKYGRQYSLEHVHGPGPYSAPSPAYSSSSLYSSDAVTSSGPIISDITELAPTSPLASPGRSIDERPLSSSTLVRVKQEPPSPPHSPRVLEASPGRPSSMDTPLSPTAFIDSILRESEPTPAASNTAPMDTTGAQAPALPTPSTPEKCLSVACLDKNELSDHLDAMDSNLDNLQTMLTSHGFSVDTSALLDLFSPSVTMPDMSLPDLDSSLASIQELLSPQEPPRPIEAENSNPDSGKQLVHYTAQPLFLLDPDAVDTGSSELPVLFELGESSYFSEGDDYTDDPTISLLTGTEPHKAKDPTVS
# [23] = Luminescence Cell-Based Dose Retest to Confirm Inhibitors of Cancer Stem Cells. [Related pubchem assays (depositor defined):AID2717, AID2721]; type: functional; conditions: Homo sapiens
# [24] = molecular target: Paired box protein Pax-8 (Homo sapiens, UniProt Q06710); assay: PAX8 transcriptional activity inhibition in RMG-I – RMG-I cells, luciferase, cherry-pick, dose response (AID 687027); type: functional, cell-based;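 note: luciferase reporter driven by Pax8 target thyroperoxidase promoter measured by SteadyGlo luminescence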
# [25] = HEK-293T viability loss after treatment – luminescence, T-cell screen hits, cytotoxicity control for TCR NF-kB inhibitor project, dose response (AID 489026); type: functional, cell-based;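 note: cells exposed to compound about 14 hours before the viability readout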
# [26] = molecular target: T6, Rac GTPase-activating protein 1 (Homo sapiens, UniProt Q9H0H5); assay: blockers of MgcRacGAP-driven Rac1 GTP hydrolysis – biochemical, ADP Hunter fluorescence, primary and confirmatory, confirmation (AID 624330); type: functional
# T6 sequence (Q9H0H5 whole entry): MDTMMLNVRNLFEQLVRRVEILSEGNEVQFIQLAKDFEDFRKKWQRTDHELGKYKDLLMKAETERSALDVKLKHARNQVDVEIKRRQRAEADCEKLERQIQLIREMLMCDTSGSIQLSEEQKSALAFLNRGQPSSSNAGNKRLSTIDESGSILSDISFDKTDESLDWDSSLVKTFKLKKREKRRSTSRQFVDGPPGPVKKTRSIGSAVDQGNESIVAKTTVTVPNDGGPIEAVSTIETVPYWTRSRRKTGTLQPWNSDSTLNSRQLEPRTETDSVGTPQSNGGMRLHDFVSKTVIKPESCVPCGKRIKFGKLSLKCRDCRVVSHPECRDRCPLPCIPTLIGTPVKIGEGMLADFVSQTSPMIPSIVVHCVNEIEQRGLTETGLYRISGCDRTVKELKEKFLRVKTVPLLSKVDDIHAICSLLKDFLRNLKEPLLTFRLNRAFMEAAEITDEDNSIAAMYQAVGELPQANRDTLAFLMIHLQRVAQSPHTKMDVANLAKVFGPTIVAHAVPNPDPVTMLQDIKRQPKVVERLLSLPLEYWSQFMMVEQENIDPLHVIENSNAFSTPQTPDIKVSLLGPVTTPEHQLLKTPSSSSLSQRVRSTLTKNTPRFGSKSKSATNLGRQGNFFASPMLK
# [27] = viability of uninfected HEp-2 cells – cell-based, HTS, cytotoxicity control for RSV inhibitor project, dose response (AID 2410); type: functional; conditions: human respiratory syncytial virus
# Cytochrome P450 3A4, sequence (P08684 whole entry): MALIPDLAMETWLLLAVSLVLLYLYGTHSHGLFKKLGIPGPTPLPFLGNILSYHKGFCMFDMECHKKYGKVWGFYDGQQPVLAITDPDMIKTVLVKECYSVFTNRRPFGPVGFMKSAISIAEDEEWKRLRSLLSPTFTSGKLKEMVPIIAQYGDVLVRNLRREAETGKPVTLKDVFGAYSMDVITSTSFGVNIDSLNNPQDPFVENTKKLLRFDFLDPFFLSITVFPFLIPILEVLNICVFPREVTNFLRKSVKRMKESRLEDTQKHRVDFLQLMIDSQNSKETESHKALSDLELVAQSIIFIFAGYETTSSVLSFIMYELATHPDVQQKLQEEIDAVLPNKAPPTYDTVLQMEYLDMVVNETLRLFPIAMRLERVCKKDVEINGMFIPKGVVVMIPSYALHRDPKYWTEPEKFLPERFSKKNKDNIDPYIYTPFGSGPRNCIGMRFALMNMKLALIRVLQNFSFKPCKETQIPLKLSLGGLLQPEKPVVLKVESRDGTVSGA
compound,measurement,setting,value
CC(=O)Oc1ccc2c(c1C(C)C)CCC1C(C)(C)CCC[C@@]21C (stereo partly specified),AC50,[1],39.8 µM (inconclusive)
FC(F)(F)c1ccc(CN2C[C@@H]3C(c4ccc(Cl)nc4)C4(c5ccccc5)CC3(C4)[C@H]2c2ccccc2)cc1 (stereo partly specified),AC50,[1],20 µM (inconclusive)
CC(=O)N1CCC(=NNC(=O)c2cc3ccccc3cc2O)CC1,EC50,[2],22.2 µM (active)
same,EC50,[3],> 150 µM (inactive)
same,EC50,[4],> 38 µM (not active)
same,EC50,[5],> 350 µM (not active)
Cc1c(Cl)c(S(N)(=O)=O)cc(S(N)(=O)=O)c1NC(=O)c1ccc(Cl)cc1,AC50,[6],inconclusive
same,AC50,[7],inconclusive
COC(=O)[C@@H]1C[C@H]2CC[C@H](O)C[C@H]2N1Cc1ccc(C)s1,AC50,[1],15.8 µM (inconclusive)
CC(=O)N1c2ccc(S(=O)(=O)N3CCCC(C(=O)Nc4cccc(Cl)c4)C3)cc2CC1C (stereo unspecified),IC50,[8],> 66.6 µM (inactive)
Cc1ccc2nc(N3C(=O)CNC3=S)sc2c1,IC50,[8],> 66.6 µM (inactive)
same,EC50,[9],> 150 µM (not active)
same,EC50,[10],11.2 µM (active)
same,EC50,[11],4.9 µM (active)
O=S(=O)(NCCc1csc(-c2ccccc2)n1)c1ccc2c(c1)OCCO2,EC50,[12],23.2 µM (active)
COc1ccc(/C=C2\SC(=S)N(CCC(=O)NCCc3ccc(O)cc3)C2=O)cc1,IC50,[13],> 25 µM (active)
same,CC50,[14],> 25 µM (active)
Fc1ccc(Cn2nnnc2C(c2ccc(Cl)cc2)N2CCSCC2)cc1 (stereo unspecified),EC50,[12],9.78 µM (active)
COc1ccc(CCn2c(=N)c(C(=O)NCc3ccco3)cc3c(=O)n4ccccc4nc32)cc1,AC50,[15],15.8 µM (inconclusive)
same,IC50,[16],25.7 µM (inactive)
O=C(O)[C@@H](c1ccccc1)[C@@H](C(=O)O)c1ccccc1,AC50,[6],inconclusive
CO[C@@H]1COC(=O)CC=C[C@@H](C)[C@@H]2C=C[C@H](O)[C@@H](COC(=O)[C@H](C)NC(=O)CC=C[C@H]1C)O2,AC50,[6],inconclusive
CN1CCc2c(sc3c2c(=O)n(-c2ccccc2)c2nncn32)C1,AC50,[6],inconclusive
O=C1CC(N2CCN(c3ccccn3)CC2)C(=O)N1CC(c1ccccc1)c1ccccc1 (stereo unspecified),EC50,[12],5.85 µM (active)
Cc1nc(NC2CCCCC2)c2nc(-c3ccccc3)n(CCCN3CCOCC3)c2n1,AC50,[1],5.01 µM (inconclusive)
CC(=O)Nc1cc(-c2cccc(F)c2)cn2c(-c3ccc(F)c(Cl)c3)cnc12,EC50,[17],> 89.2 µM (inactive)
COc1ccc(-c2cc(NC(C)=O)c3ncc(-c4cccc(C(C)=O)c4)n3c2)cc1OC,IC50,[18],> 79 µM (inactive)
same,EC50,[17],> 89.2 µM (inactive)
Cc1cc(C)nc(Nc2nc(C(N)Cc3ccc(Cl)cc3)cs2)n1 (stereo unspecified),EC50,[17],> 89.2 µM (inactive)
N=C(N)N/N=C/c1ccc2cccc(OCc3ccccc3)c2n1,IC50,[19],> 20 µM (inactive)
same,IC50,[8],> 66.6 µM (inactive)
same,EC50,[20],0.685 µM (active)
same,EC50,[21],> 60 µM (not active)
Sc1nnc(-c2ccccc2)n1/N=C/c1ccc(-c2ccccc2Cl)o1,EC50,[22],> 260 µM (inactive)
same,IC50,[13],2.17 µM (active)
same,AC50,[23],4 µM (active)
O=C(N/N=C/C=C/c1ccccc1)c1cc2c(ccc3ccccc32)o1,AC50,[15],0.0447 µM (inconclusive)
same,IC50,[16],9.73 µM (active)
C[C@]12CC[C@H](O)C[C@H]1CC[C@@H]1[C@@H]2CC[C@]2(C)[C@@H](C3=CC(=O)OC3)CC[C@]12O [DIGITOXIGENIN],AC50,[24],1.38 µM (active)
same,IC50,[13],< 0.05 µM (active)
same,CC50,[14],1.45 µM (active)
same,IC50,[25],> 80 µM (inactive)
same,AC50,[23],0.467 µM (active)
C[C@]12CC[C@H]3C(=CCc4cc(O)ccc43)[C@@H]1CCC2=O [EQUILIN],IC50,[26],94.6 µM (active)
same,AC50,[1],39.8 µM (inconclusive)
same,CC50,[27],22.6 µM (active)
